From EP4748847A1, “PEPTIDE COMPLEX HAVING VEGFR -2 AGONIST ACTIVITY” (Peptidream Inc, priority 2023, dated 2025) come the findings set out here.

*1 amine or outer side, *2 acyl side, *3 side chain or, on linkers, in order; H or OH if unused. Where a SMILES comes first, the peptide text is derived from it. Bridges are numbered along the chain shown (N, C = ends). Roman numbers before positions name the chains, in order. Where no end group is shown, it is not given here. [ ]: non-standard residue; d: D form. X2 = O=C(OCCOCCOCCOCCOCCOCCOCCOCCOCCOCCOCCOCCOC(=O)[*:2])[*:1]; hTyr = N[C@@H](CCc1ccc(O)cc1)C(=O)O

In test [1] the target is T1, VEGFR-2 (Homo sapiens, UniProt P35968).
T1 construct: endogenous in cells; host or cells: HUVEC
T1 sequence (P35968 20-1356): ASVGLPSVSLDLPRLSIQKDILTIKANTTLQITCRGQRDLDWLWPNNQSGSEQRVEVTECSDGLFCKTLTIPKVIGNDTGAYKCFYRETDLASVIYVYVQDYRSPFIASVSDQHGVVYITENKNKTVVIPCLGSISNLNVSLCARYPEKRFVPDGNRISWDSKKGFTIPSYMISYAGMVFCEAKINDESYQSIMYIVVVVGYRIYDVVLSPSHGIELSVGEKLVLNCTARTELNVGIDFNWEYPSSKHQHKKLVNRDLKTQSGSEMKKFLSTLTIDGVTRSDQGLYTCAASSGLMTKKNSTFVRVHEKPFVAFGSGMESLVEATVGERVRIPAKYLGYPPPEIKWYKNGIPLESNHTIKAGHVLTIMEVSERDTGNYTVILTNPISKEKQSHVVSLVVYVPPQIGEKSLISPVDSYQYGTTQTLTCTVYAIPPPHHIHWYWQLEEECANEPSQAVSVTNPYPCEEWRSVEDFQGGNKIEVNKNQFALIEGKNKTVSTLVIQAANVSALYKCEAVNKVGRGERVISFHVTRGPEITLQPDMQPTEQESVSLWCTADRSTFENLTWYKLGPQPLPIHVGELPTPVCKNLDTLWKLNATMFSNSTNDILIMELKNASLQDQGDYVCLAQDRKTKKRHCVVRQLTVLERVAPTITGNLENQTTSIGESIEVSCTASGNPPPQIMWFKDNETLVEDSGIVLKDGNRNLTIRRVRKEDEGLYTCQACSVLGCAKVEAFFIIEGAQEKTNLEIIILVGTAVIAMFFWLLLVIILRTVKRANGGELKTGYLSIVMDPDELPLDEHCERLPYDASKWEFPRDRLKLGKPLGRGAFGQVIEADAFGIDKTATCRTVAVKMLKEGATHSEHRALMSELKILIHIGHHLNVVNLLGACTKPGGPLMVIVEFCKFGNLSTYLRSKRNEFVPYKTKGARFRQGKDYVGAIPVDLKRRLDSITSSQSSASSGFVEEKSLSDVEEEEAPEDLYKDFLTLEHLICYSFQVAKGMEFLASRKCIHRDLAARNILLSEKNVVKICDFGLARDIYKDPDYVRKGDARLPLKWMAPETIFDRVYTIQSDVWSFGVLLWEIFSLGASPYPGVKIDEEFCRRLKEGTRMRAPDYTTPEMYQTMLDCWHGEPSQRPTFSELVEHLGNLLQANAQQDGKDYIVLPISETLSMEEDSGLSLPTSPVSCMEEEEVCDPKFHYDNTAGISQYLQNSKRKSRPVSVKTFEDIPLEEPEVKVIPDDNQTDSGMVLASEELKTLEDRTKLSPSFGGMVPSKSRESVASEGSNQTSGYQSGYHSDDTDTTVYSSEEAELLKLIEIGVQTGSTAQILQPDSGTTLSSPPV
The experiment in a line: pVEGFR AlphaLISA assay (VEGFR-2 phosphorylation, p-Tyr1175) in HUVECs. The class given is cell-based. To be noted: 10 minutes stimulation, % activity, maximum VEGF165a signal = 100%, unstimulated = 0%, peptide 10, 100 nM (dimer structures 2-41). A digest of the protocol: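 HUVECs grown 2 days, starved 18 hours in EBM-2 with 0.5% FBS, then stimulated 10 minutes at 37°C with peptide or VEGF165a (0.08–20 nM). VEGFR-2 p-Tyr1175 in lysates read by AlphaLISA; % activity scaled to maximal VEGF165a signal (100%) and unstimulated control (0%), binned by activity at tested peptide concentrations.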

The test system of test [2] is ERK. Nature of the test: pERK AlphaLISA assay (ERK phosphorylation, p-Erk1/2 Thr202/Tyr204) in HUVEC lysate. The class given is cell-based, human. Conditions: HUVEC lysate of the pVEGFR assay; % activity, maximum VEGF165a signal = 100%, unstimulated = 0%; peptide 10, 100 nM (dimer structures 2-41). The protocol: To evaluate the intracellular signaling activation ability of the VEGFR-2 agonist peptides of the present invention, ERK phosphorylation was verified. Using the lysate employed in the pVEGFR AlphaLISA assay, the assay was performed according to the protocol of the AlphaLISA SureFire Ultra p-Erk1/2 (Thr202/Tyr204) Assay Kit (PerkinElmer). Signal detection was performed using a SpectraMax Paradigm multimode microplate reader (Molecular Devices). The obtained signals were analyzed using GraphPad Prism, and % activity was calculated with the maximum signal induced by VEGF165a set as 100% and the unstimulated control as 0%.
The VEGF165a concentration was evaluated at five points (0.08, 0.31, 1.25, 5, 20 nM) using 1/4-fold dilutions starting from 20 nM to determine the maximum value (100%). Peptide concentrations tested were: 3.2, 16, 80 nM for dimer structure […], 100 nM for dimer structures numbers 2-41; and 1.25, 5, 20 nM for dimer structures numbers 42-57.
For % activity, peptides showing ≥50% activity at 3.2 nM were designated 1-A, those showing ≥50% activity at 16 nM were designated 1-B, those showing ≥50% activity at 80 nM were designated 1-C, and those showing ≥1% but <50% activity at 80 nM were designated 1-D. […]

For test [3], the system named is HUVEC. The experiment in a line: HUVEC proliferation promotion evaluation (CellTiter-Glo). The class given is cell-based, human. Conditions: 2 days culture, % activity, maximum VEGF165a signal = 100%, peptide 1, 10, 100 nM. The protocol: To evaluate the biological activity of the VEGFR-2 agonist peptide of the present invention, an HUVEC proliferation promotion evaluation was conducted. HUVECs cultured as described above were detached using Tryple (Thermo Fisher Scientific). They were then seeded at 10,000 cells per well onto Nunc™ MicroWell™ 96 -Well, Nunclon Delta-Treated, Flat-Bottom Microplate (cat. #136101) . After 24 hours, cells were starved by replacing with EBM-2 medium (LONZA) containing 0.5% FBS (Thermo Fisher Scientific), 0.1% Heparin (included with the above Lonza CC-3162), and 0.1% Gentamicin (Nacalai) and cultured for 18 hours. Subsequently, Recombinant Human VEGF 165a Protein (R&D Systems) or the peptide was added, and the cells were cultured for 2 days at 37°C in a CO2 incubator. Assays were performed according to the CellTiter-Glo (Promega) kit protocol, and signals were detected using a SpectraMax Paradigm multimode microplate reader (Molecular Devices) was used for signal detection. The obtained signals were analyzed using GraphPad Prism, and % activity was calculated with the maximum signal induced by VEGF165a set as 100% and the unstimulated control as 0%.
The VEGF165a concentration was evaluated at six points (0.006, 0.03, 0.16, 0.8, 4, 20 nM) using 1/5-fold dilutions starting from 20 nM to determine the maximum value (100%). […]

Regarding `CC(C)[C@@H]1NC(=O)CNC(=O)[C@H](CCCCNC(=O)OCCOCCOCCOCCOCCOCCOCCOCCOCCOCCOCCOCCOC(=O)NCCCC[C@@H]2NC(=O)[C@H](C(C)C)NC(=O)[C@H](CC(=O)O)NC(=O)[C@H](C(C)C)NC(=O)[C@H](Cc3c[nH]c4ccccc34)NC(=O)[C@H](Cc3c[nH]c4ccccc34)NC(=O)CSC[C@@H](C(=O)NCC(N)=O)NC(=O)[C@H](CC(=O)O)NC(=O)[C@H](CCc3ccc(O)cc3)NC(=O)[C@H](Cc3ccccc3)NC(=O)[C@H](Cc3ccc(O)cc3)NC(=O)[C@H](CC(N)=O)NC(=O)[C@H](C(C)C)NC(=O)CNC2=O)NC(=O)[C@H](C(C)C)NC(=O)[C@H](CC(=O)O)NC(=O)[C@H](C(C)C)NC(=O)[C@H](Cc2c[nH]c3ccccc23)NC(=O)[C@H](Cc2c[nH]c3ccccc23)NC(=O)CSC[C@@H](C(=O)NCC(N)=O)NC(=O)[C@H](CC(=O)O)NC(=O)[C@H](CCc2ccc(O)cc2)NC(=O)[C@H](Cc2ccccc2)NC(=O)[C@H](Cc2ccc(O)cc2)NC(=O)[C@H](CC(N)=O)NC1=O` [compound 37] (I: {CH2CO}-WWVDVKGVNYF[hTyr]DCG-NH2 / II: {CH2CO}-WWVDVKGVNYF[hTyr]DCG-NH2; linker I:6-II:6 via X2; thioether I:N-I:14, II:N-II:14), the “pVEGFR2 Assay Results” value in test [1] is reported as 2-A (50% or more activity at 10 nM). For the same compound, in test [2], the “pERK Assay Results” value is reported as 2-B (50% or more activity at 100 nM).
As for “Dimer Structure No. 1: complex of Peptide Sequence No. 3 (W-W-V-D-V-Q-D-D-L-Y-F-V-D-C-G) and Linker Structure No. 1 (PEG12c-K-PEG12c), Conjugation No. 15 (WWVDVQDDLYFVDCG; also: dimer via PEG12c-K-PEG12c linker)”, the “pVEGFR2 Assay Results” value in test [1] is reported as 2-C (1% or more but less than 50% activity at 100 nM). Moreover, in test [3], the proliferation was 4-D (≥1% but <50% activity at 100 nM). Besides, the “pERK Assay Results” value in test [2] is given as 2-B (50% or more activity at 100 nM).
